Results reported in ChEMBL document CHEMBL1140271, “Synthesis and antibacterial activity of 5-methoxy- and 5-hydroxy-6-fluoro-1,8-naphthyridone-3-carboxylic acid derivatives” (Bioorg Med Chem Lett, 2005).
pIC50: −log10 of the molar value. Converted amounts (≈) assume the structure as drawn.

What was measured:
[1] = tested on: Streptococcus pneumoniae; experiment: Inhibitory concentration against Streptococcus pneumoniae translation; type: functional, organism-based
[2] = tested on: Haemophilus influenzae; experiment: Minimum inhibitory concentration against Haemophilus influenzae GYR 1435 gram-negative strain; type: functional
[3] = tested on: Streptococcus pneumoniae; experiment: Minimum inhibitory concentration against Streptococcus pneumoniae 7257 Quinolone-resistant strain; type: functional

SMILES	pIC50 [1]	MIC [2]	MIC [3]
C[C@H]1COc2c(N3CCN(C)CC3)c(F)cc3c(=O)c(C(=O)O)cn1c23.C[C@H]1COc2c(N3CCN(C)CC3)c(F)cc3c(=O)c(C(=O)O)cn1c23.O [LEVOFLOXACIN]	< 4.00	0.015 µg/mL	
NC1CCN(c2nc3ncc(C(=O)O)c(O)c3cc2F)C1 (centres undefined)	5.15	4 µg/mL (≈ 13.7 µM)	32 µg/mL (≈ 109 µM)
COc1c(F)c(N2CCC(N)C2)nc2ncc(C(=O)O)c(O)c12 (centres undefined)	5.40	64 µg/mL (≈ 199 µM)	64 µg/mL (≈ 199 µM)
O=C(O)c1cnc2nc(N3CCC3)c(F)c(O)c2c1O	3.70	64 µg/mL (≈ 229 µM)	64 µg/mL (≈ 229 µM)
COc1c(F)c(N2CCC2)nc2ncc(C(=O)O)c(O)c12	4.85	32 µg/mL (≈ 109 µM)	8 µg/mL (≈ 27.3 µM)
NC1CCN(c2nc3ncc(C(=O)O)c(O)c3c(O)c2F)C1 (centres undefined)	4.77	32 µg/mL (≈ 104 µM)	64 µg/mL (≈ 208 µM)
O=C(O)c1cnc2nc(N3CCCC3)c(F)cc2c1O	5.00	1 µg/mL (≈ 3.61 µM)	4 µg/mL (≈ 14.4 µM)
O=C(O)c1cnc2nc(N3CCC3)c(F)cc2c1O	5.30	1 µg/mL (≈ 3.8 µM)	4 µg/mL (≈ 15.2 µM)
O=C(O)c1cnc2nc(N3CCCC3)c(F)c(O)c2c1O	4.29	4 µg/mL (≈ 13.6 µM)	4 µg/mL (≈ 13.6 µM)
COc1c(F)c(N2CCCC2)nc2ncc(C(=O)O)c(O)c12	4.49	64 µg/mL (≈ 208 µM)	32 µg/mL (≈ 104 µM)
